Experimental data from patent US20170173106A1, “Polypeptide Fragments of 168A-T2 and Compositions Comprising Them for Use in Treating Cancer” (GENE SIGNAL INTERNATIONAL SA, priority 2014, published 2017).

Experiments:
HUVECs = assay: Cellular proliferation test (MTT) on HUVECs; type: cell-based, human; conditions: 48 h
Description: Evaluation of cellular proliferation was performed using 4,5-diMethylThiazol-2-yl)-2,5 diphenylTetrazolium bromide (MTT) test. After 18 hrs of culture, the media was changed by EBM2 supplemented with gentamycine and 5% SVF. Different concentrations of peptides were added under a volume of 10 μL/well. Cells were incubated for 48 hrs at 37° C. MTT was added (50 μL/well) to the cells for 3 hrs.
Cells were grown for 48 h in EGM2-MV and proliferation was quantified by MTT assay.

endostatin = assay: Endostatin production by HUVECs (ELISA); type: cell-based, human; conditions: rising concentrations; 48 hrs
Description: HUVECs were transfected with siRNA using transfecting agent GENJET according to the manufacturer's instructions. After 48 hrs of incubation, supernatants were collected, protein expression tested by western blots and endostatin quantified.
Endostatin levels were quantified by ELISAs on lysates of HUVECs incubated at rising concentrations of P3 or PCT for 48 hrs.
In order to evaluate the role of metalloproteinases (MMPs) in endostatin production, a polyvalent inhibitor of MMPs, GM6001 was used. The concentration of endostatin in supernatants is at 6.2 ng/mg of protein of the lysates/48 hrs. […] GM6001 inhibits endostatin production induced by P3. MMPs might then be implicated in endostatin production induced by P3.
HUVECs were incubated for 48 hrs in an EGM2-MV media with an anti-CD151 antibody (11G5a) or an irrelevant antibody (negative control unable to recognize any protein). Then endostatin levels were measured by ELISA in supernatants.
HUVECs cells were transfected with specific siRNA of CD151 and CD9. Protein expression was analyzed in western blots. In parallel, endostatin levels were measured by ELISA in supernatants. […] Levels of endostatin in supernatant of HUVECs cells transfected with siRNA were measured. […] On the contrary, levels of endostatin increased at 9.4 ng/mg of protein lysates/48 hrs in HUVECs depleted in CD151 (FIG. 18B). CD151 is thus involved in the production of endostatin.

NQKGCYDLVT (control peptide) [PCT]
effect on HUVECs proliferation (HUVECs): No effect
level of endostatin compared to the solvent condition (endostatin): does not modify the level of endostatin
